Active and inactive are the calls of the source. Unless noted, the rule behind the calls is not given here.
Key:
[1] = target: T1, Runt-related transcription factor 1/Core-binding factor subunit beta (Homo sapiens, UniProt Q01196+Q13951); experiment: Confirmation of compounds inhibiting the binding between the RUNX1 Runt domain and CBFb-SMMHC via a fluorescence resonance energy transfer (FRET) assay. [Related pubchem assays (depositor defined):AID1434, AID1438, AID1496, AID1550, AID1645]; format: protein assay
[2] = target: T1, Runt-related transcription factor 1/Core-binding factor subunit beta; experiment: Confirmation of compounds inhibiting the binding between the RUNX1 Runt domain and CBFb-SMMHC via a time resolved fluorescence resonance energy transfer (TR-FRET) assay. [Related pubchem assays (depositor defined):AID1434, AID1438, AID1496, AID1560, AID1645]; format: protein assay
Coagulation factor XII = target: T2, Coagulation factor XII (Homo sapiens, UniProt P00748); experiment: activated coagulation factor XII inhibitor potency, concentration-effect curve, cell-free (AID 716); format: functional
T2 sequence (P00748 whole entry): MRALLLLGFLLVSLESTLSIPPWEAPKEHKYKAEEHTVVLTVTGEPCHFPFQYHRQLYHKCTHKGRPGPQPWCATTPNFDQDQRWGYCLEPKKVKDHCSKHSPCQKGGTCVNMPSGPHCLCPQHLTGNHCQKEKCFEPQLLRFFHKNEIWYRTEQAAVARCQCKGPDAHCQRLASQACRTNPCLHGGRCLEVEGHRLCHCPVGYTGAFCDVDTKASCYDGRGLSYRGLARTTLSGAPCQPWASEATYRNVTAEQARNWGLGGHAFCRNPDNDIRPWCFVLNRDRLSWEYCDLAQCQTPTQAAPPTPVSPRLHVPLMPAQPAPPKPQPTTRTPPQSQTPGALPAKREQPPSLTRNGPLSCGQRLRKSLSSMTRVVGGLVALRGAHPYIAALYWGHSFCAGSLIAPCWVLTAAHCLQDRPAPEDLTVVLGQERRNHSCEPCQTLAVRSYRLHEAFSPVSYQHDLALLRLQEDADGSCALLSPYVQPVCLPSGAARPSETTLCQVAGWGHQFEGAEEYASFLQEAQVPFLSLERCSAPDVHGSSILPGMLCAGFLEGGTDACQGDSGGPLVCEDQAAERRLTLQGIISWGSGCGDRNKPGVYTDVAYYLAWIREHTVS

[3] = PhoP promoter GFP reporter reduction in Typhimurium – purified and synthesized compounds, set 2, PhoP regulon inhibitor project, dose response (AID 2831); format: functional
[4] = target: Kappa-type opioid receptor (Homo sapiens, UniProt P41145); experiment: SAR analysis of small molecule agonists of the kappa opioid receptor via a luminescent beta-arrestin assay - Set 3. [Related pubchem assays (depositor defined):AID1777, AID1785, AID1786, AID1966, AID2133, AID2136, AID2284, AID2500]; format: functional
[5] = target: Tyrosine-protein phosphatase non-receptor type 7 (Homo sapiens, UniProt P35236); experiment: inhibition of hematopoietic tyrosine phosphatase HePTP – biochemical, set 2, SAR follow-up (AID 449736); format: functional
SUMO-activating enzyme [6] = target: T3, SUMO-activating enzyme (Homo sapiens, UniProt Q9UBT2); experiment: blockers of SAE1/SAE2–UBC9 SUMO transfer – biochemical, HTRF, uHTS, primary screen (AID 2006); format: protein-complex assay
cells [7] = format: functional, cell-based
Galanin receptor type 3 = Galanin receptor type 3 (Homo sapiens, UniProt O60755); experiment: Fluorescence-based cell-based primary high throughput dose response assay to identify antagonists of the Galanin Receptor 3 (GalR3).; format: functional
SUMO-activating enzyme [8] = target: T3, SUMO-activating enzyme; experiment: blockers of UBC9-mediated SUMO conjugation – biochemical, AlphaScreen, SUMOylation inhibitor project, confirmation (AID 2018); format: functional
Albumin = Albumin (Bos taurus, UniProt P02769); experiment: Counterscreen for inhibitors of T-cell receptor (TCR)-CD3 interaction: Fluorescence-based biochemical high throughput dose response assay to identify inhibitors of T-cell receptor (TCR)-CD3 interaction using a TAMRA-labeled BSA probe.; format: functional
cells [9] = format: functional, cell-based; conditions: HEK-CNG
cells [10] = format: functional, cell-based; remark: listed apart in the source

T1 sequence (Q01196 whole entry, the tested form may be a part): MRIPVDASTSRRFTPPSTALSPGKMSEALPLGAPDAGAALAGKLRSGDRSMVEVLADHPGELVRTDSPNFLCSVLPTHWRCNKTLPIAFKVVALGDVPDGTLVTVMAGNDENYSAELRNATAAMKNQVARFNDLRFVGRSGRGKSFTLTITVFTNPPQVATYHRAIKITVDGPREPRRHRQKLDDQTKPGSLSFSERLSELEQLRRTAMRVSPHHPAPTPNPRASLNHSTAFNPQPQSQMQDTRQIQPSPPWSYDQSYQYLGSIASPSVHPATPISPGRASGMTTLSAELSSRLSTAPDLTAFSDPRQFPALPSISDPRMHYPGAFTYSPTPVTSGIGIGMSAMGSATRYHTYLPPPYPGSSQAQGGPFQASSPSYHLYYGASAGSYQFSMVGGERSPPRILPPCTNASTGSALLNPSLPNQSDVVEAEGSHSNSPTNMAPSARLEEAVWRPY
T1 sequence (Q13951 whole entry, the tested form may be a part): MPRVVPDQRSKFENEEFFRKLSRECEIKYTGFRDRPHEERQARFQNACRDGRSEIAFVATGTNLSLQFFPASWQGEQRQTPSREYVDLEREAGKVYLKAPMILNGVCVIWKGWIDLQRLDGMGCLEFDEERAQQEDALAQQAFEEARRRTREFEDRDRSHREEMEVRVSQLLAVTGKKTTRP
T3 sequence (Q9UBE0 whole entry): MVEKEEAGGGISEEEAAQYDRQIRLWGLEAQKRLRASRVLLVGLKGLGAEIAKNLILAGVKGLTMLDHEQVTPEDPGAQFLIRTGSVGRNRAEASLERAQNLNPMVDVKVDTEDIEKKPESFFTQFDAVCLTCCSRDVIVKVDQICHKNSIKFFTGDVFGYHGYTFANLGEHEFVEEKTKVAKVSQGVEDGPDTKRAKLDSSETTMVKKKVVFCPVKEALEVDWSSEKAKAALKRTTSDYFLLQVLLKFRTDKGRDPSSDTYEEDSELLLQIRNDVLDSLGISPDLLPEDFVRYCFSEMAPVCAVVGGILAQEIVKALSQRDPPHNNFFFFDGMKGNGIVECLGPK
T3 sequence (Q9UBT2 whole entry): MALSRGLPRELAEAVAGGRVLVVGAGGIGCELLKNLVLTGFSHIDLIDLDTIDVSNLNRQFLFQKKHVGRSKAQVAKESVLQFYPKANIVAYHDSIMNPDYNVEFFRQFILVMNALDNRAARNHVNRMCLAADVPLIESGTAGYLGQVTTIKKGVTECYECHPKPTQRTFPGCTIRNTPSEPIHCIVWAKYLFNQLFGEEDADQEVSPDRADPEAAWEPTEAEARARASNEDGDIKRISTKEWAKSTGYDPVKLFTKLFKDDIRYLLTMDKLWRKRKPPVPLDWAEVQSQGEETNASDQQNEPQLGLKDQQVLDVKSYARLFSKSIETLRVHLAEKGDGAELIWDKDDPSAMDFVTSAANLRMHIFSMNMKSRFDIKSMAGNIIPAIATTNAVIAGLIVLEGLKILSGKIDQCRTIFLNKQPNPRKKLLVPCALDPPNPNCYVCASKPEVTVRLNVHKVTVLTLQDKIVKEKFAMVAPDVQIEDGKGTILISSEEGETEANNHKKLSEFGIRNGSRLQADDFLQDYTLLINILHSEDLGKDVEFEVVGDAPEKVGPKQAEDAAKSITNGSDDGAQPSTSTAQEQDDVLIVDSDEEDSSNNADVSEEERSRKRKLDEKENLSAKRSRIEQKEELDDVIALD
Galanin receptor type 3, sequence (O60755 whole entry): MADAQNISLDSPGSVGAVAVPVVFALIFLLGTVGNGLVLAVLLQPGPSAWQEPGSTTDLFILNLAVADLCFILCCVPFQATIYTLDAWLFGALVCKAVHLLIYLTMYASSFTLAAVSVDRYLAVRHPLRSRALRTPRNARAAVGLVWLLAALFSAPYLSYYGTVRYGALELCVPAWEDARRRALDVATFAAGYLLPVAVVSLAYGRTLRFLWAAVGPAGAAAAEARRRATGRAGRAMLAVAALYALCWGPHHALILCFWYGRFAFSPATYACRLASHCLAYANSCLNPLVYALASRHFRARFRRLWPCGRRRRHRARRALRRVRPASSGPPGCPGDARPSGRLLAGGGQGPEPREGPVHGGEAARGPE
Kappa-type opioid receptor, sequence (P41145 whole entry): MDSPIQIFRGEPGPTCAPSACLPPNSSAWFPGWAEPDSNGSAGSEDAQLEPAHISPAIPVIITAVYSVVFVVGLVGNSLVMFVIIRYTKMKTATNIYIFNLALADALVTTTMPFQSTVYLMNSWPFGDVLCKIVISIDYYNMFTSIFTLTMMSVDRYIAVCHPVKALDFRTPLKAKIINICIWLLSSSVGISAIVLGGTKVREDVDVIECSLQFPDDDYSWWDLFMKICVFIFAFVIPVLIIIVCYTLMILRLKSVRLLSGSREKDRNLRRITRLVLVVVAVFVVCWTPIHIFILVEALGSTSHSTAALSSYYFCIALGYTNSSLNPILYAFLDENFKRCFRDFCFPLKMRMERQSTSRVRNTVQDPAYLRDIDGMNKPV
Tyrosine-protein phosphatase non-receptor type 7, sequence (P35236 whole entry): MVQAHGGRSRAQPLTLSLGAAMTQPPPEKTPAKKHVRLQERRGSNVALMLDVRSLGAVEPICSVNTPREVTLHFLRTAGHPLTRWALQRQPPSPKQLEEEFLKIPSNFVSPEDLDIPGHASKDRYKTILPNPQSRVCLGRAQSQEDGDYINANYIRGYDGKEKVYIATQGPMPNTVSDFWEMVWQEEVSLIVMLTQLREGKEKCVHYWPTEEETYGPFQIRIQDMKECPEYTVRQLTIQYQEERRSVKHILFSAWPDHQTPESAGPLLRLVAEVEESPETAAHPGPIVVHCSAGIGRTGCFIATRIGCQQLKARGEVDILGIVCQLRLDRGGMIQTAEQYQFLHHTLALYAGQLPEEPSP
Albumin, sequence (P02769 whole entry): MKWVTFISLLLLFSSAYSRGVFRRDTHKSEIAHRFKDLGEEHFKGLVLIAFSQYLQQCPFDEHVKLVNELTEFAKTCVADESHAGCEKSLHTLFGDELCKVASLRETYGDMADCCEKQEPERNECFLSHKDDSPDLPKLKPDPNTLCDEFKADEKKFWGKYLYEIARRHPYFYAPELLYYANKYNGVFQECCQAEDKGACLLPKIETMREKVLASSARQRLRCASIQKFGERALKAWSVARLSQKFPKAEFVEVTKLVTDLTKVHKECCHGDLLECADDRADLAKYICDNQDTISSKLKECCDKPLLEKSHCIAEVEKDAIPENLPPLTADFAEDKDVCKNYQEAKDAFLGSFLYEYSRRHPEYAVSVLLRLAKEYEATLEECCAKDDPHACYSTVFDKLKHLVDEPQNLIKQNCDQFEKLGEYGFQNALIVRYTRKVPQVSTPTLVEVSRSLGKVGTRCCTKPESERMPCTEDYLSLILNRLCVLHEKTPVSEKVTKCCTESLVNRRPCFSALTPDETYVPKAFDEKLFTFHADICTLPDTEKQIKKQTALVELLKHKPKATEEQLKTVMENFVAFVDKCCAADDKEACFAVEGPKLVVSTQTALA

Cc1cc(C=NNC(=O)Cn2c3ccccc3c(=O)c3ccccc32)c(C)n1-c1ccc(Cl)cc1
IC50 [1]: 3.58 µM (active)
IC50 [2]: 13.6 µM (active)

COc1ccc2oc(C)c(C(=O)Cn3ccnc3)c2c1
IC50 (Coagulation factor XII): > 50 µM (inactive)

O=C(Nc1ccc(Cl)cc1)N1CCCN(Cc2ccccc2F)C1
IC50 [3]: > 125 µM (active)

COc1ccc(Cn2c(SCc3ccccc3)nnc2-c2ccccn2)cc1
EC50 [4]: > 20 µM (inactive)

NS(=O)(=O)c1ccc(NC(=S)Nc2ccc3c(c2)CCC3)cc1
IC50 [5]: 7.93 µM (active)

C/C(=N\OCc1nc2ccccc2c(=O)n1/N=C/c1cc(C)cc([N+](=O)[O-])c1O)c1ccccc1
IC50 (SUMO-activating enzyme [6]): 8.77 µM (active)
EC50 (cells [7]): > 350 µM (not active)
IC50 (Galanin receptor type 3): 3.39 µM (active)
IC50 (SUMO-activating enzyme [8]): 1.2 µM (active)
IC50 (Albumin): > 94.1 µM (inactive)
EC50 (cells [9]): > 29.9 µM (inactive)
EC50 (cells [10]): 78 µM (active)
